{"source": "paper PMC10257182", "about": "“Discovery of senolytics using machine learning” (Nature Communications, 2023)", "format_in_all_cases": "cell-based, human", "key": {"[1]": {"tested_on": "senescent IMR90 ER:RAS cells (4-OHT-induced)", "assay": "Nuclei count (Hoechst, high content imaging) senolytic assay, oncogene-induced senescence (OIS) model, senescent cells", "conditions": "for Mean % Cell Survival: mean n=3 (Fig 3C)", "from_the_text": "To test for senolytic activity, we compared the effect of each compound on the total cell number (automated high content image-based analysis of total number of nuclei per well) in non-senescent and senescent IMR90 ER:RAS cultures treated with the top hits from the computational screen (Figs. 2e and 3a–d and Supplementary Fig. 4a–c). The drop in cell number compared to untreated controls is indicated by the nuclei count and reflects cell death[13],[15]. As positive control, we employed ouabain, a cardiac glycoside with well characterised senolytic activity.\nWe performed experimental validation of the compounds with z-score > 8 (Fig. 2e). […] We employed two cellular models of senescence: one of OIS and a second one of TIS. For the OIS case, we utilised IMR90 ER:RAS cells with 4-OHT at 100 nM. […] For the TIS model, we used A549 cells with etoposide at 100 μM. The exposure of the cells to etoposide lasted 48 h, after which period the cells were cultivated for a further three days with normal media.\nIMR90 (CCL-186) human foetal lung fibroblasts and A549 (CCL-185) human lung adenocarcinoma cells were obtained from the American Type Culture Collection (ATCC, Manassas, VA). The cell lines were confirmed to be mycoplasma negative (Lonza MycoAlert, cat #LT07-118). IMR90 ER:RAS is a derivative of IMR90 cells expressing a switchable version of oncogenic H-Ras[84]. IMR90 ER:RAS and A549 cells were maintained in Dulbecco’s Modified Eagle Medium (DMEM, ThermoFisher) supplemented with foetal bovine serum (10%), L-glutamine (2 mM, ThermoFisher), and antibiotic-antimycotic solution (1%, ThermoFisher) and incubated under standard tissue culture conditions (37 °C and 5% CO2). For induction of the senescent phenotype, IMR90-ER:RAS cells were cultured in hydroxytamoxifen (4-OHT) (Sigma) added media at 100 nM final concentration. IMR90 were kept in culture for over 27 passages for replicative senescence. Cells were tested for mycoplasma on a regular basis.\nCells were seeded (50 μL per well) into 384-well plates (IMR90 ER:RAS cells in Nunc Optical Bottom Polybase Microplates [#142761, Thermo Scientific, Rochester, NY] and A549 cells in CELLSTAR Cell Culture Microplates [#781091, Greiner Bio-One, Kremsmünster, Austria]). Cells were incubated under standard tissue culture conditions for 24 h before the addition of compounds. Passage 14 IMR90 ER:RAS cells were seeded at 1300 cells per well in the control condition, and at 1600 cells per well in the senescent case. Passage 34 A549 cells were seeded at 7000 cells per well in the control condition, and at 10,000 cells per well in the senescent case.\nDose response plates were prepared with a DMSO control and a 10-point […] concentration range, and added to the compounds using a D300e digital dispenser (Tecan Trading AG, Switzerland) at a final concentration of between 10 μM and 10 nM. Every screened condition was carried out in triplicate. After 72 h of incubation with exposure to the compounds, cells were fixed by the addition of an equal volume of formaldehyde (8%, 50 μL; #BP531-500, Fisher Bioreagents, Fisher Scientific, Loughborough, Leicestershire) to the existing media, incubated at room temperature (30 min), and washed three times in phosphate-buffered saline (PBS). Cells were then permeabilised in Triton-X100 (0.1%, 50 μL) and incubated at room temperature (30 min) followed by three more washes with PBS.\nCells were stained with Hoechst 33342 for nuclei count (excitation/emission wavelength at 387/447 […], DAPI channel, original concentration at 10 mg/ml, final concentration at 2 μg/ml; H1399, Molecular Probes, Eugene, OR). The staining solution was prepared in bovine serum albumin solution (10%). The staining solution was added to each well (30 μL) and incubated in the dark at room temperature (30 min), followed by three washes with PBS and no final aspiration. Plates were foil sealed."}, "[2]": {"tested_on": "senescent A549 cells (etoposide-induced)", "assay": "Nuclei count senolytic assay, therapy-induced senescence (TIS) model, senescent cells", "conditions": "Senescent cells, mean", "method_in_brief": "(§1)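 Etoposide 100 μM, 48 h, + 3 d standard media → senescent A549; untreated A549 = controls. 24 h post-seeding, cpds 10 nM–10 μM final, 10-pt […], 72 h, n=3. Fix formaldehyde, permeabilise Triton-X100, Hoechst 2 μg/ml, image, count nuclei.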"}, "[3]": {"tested_on": "non-senescent control A549 cells", "assay": "Nuclei count senolytic assay, TIS model, non-senescent control cells", "conditions": "Control cells, mean", "method_in_brief": "as §1"}}, "note": "Values joined by “and” are separate entries in the source; they are usually repeats but may differ in a detail not shown here. Identical values can stand only once."}
{"smiles": "Cc1c(NC(=O)OC[C@@H]2COCCN2)cn2ncnc(Nc3ccc4c(cnn4Cc4cccc(F)c4)c3)c12.Cl.Cl", "note": "[BMS 599626 2HCL, BMS 599626 dihydrochloride]", "values": [{"measurement": "% Cell Survival", "setting": "[1]; Senescent cells, log (dose) [M] -5, individual replicates, SUP FIG 4C", "result": "148.305% and 168.559% and 104.914%"}, {"measurement": "% Cell Survival", "setting": "[1]; Senescent cells, log (dose) [M] -5.33, individual replicates, SUP FIG 4C", "result": "96.2712% and 179.476% and 125.714%"}, {"measurement": "% Cell Survival", "setting": "[1]; Senescent cells, log (dose) [M] -5.66, individual replicates, SUP FIG 4C", "result": "153.051% and 117.467% and 95.5429%"}, {"measurement": "% Cell Survival", "setting": "[1]; Senescent cells, log (dose) [M] -6, individual replicates, SUP FIG 4C", "result": "117.797% and 133.042% and 86.6286%"}, {"measurement": "% Cell Survival", "setting": "[1]; Senescent cells, log (dose) [M] -6.33, individual replicates, SUP FIG 4C", "result": "137.458% and 98.5444% and 96.6857%"}, {"measurement": "% Cell Survival", "setting": "[1]; Senescent cells, log (dose) [M] -6.66, individual replicates, SUP FIG 4C", "result": "136.441% and 92.5764% and 82.2857%"}, {"measurement": "% Cell Survival", "setting": "[1]; Senescent cells, log (dose) [M] -7, individual replicates, SUP FIG 4C", "result": "136.102% and 95.3421% and 94.0571%"}, {"measurement": "% Cell Survival", "setting": "[1]; Senescent cells, log (dose) [M] -7.33, individual replicates, SUP FIG 4C", "result": "122.034% and 101.601% and 79.4286%"}, {"measurement": "% Cell Survival", "setting": "[1]; Senescent cells, log (dose) [M] -7.66, individual replicates, SUP FIG 4C", "result": "139.831% and 102.475% and 90.8571%"}, {"measurement": "% Cell Survival", "setting": "[1]; Senescent cells, log (dose) [M] -8, individual replicates, SUP FIG 4C", "result": "151.017% and 98.69% and 92.6857%"}, {"measurement": "Mean % Cell Survival", "setting": "[1]; Senescent, log (dose) [M] -5, 72 h", "result": 140.593, "unit": "%"}, {"measurement": "Mean % Cell Survival", "setting": "[1]; Senescent, log (dose) [M] -5.33, 72 h", "result": 133.82, "unit": "%"}, {"measurement": "Mean % Cell Survival", "setting": "[1]; Senescent, log (dose) [M] -5.66, 72 h", "result": 122.02, "unit": "%"}, {"measurement": "Mean % Cell Survival", "setting": "[1]; Senescent, log (dose) [M] -6, 72 h", "result": 112.489, "unit": "%"}, {"measurement": "Mean % Cell Survival", "setting": "[1]; Senescent, log (dose) [M] -6.33, 72 h", "result": 110.896, "unit": "%"}, {"measurement": "Mean % Cell Survival", "setting": "[1]; Senescent, log (dose) [M] -6.66, 72 h", "result": 103.768, "unit": "%"}, {"measurement": "Mean % Cell Survival", "setting": "[1]; Senescent, log (dose) [M] -7, 72 h", "result": 108.5, "unit": "%"}, {"measurement": "Mean % Cell Survival", "setting": "[1]; Senescent, log (dose) [M] -7.33, 72 h", "result": 101.021, "unit": "%"}, {"measurement": "Mean % Cell Survival", "setting": "[1]; Senescent, log (dose) [M] -7.66, 72 h", "result": 111.054, "unit": "%"}, {"measurement": "Mean % Cell Survival", "setting": "[1]; Senescent, log (dose) [M] -8, 72 h", "result": 114.131, "unit": "%"}, {"measurement": "% Cell Survival", "setting": "[1]; Senescent, log (dose) [M] -5", "result": 90.7857, "unit": "%"}, {"measurement": "% Cell Survival", "setting": "[1]; Senescent, log (dose) [M] -5.33", "result": 83.9286, "unit": "%"}, {"measurement": "% Cell Survival", "setting": "[1]; Senescent, log (dose) [M] -5.66", "result": 68.2857, "unit": "%"}, {"measurement": "% Cell Survival", "setting": "[1]; Senescent, log (dose) [M] -6", "result": 92.9286, "unit": "%"}, {"measurement": "% Cell Survival", "setting": "[1]; Senescent, log (dose) [M] -6.33", "result": 86.7857, "unit": "%"}, {"measurement": "% Cell Survival", "setting": "[1]; Senescent, log (dose) [M] -6.66", "result": 103.929, "unit": "%"}, {"measurement": "% Cell Survival", "setting": "[1]; Senescent, log (dose) [M] -7", "result": 113.571, "unit": "%"}, {"measurement": "% Cell Survival", "setting": "[1]; Senescent, log (dose) [M] -7.33", "result": 119.214, "unit": "%"}, {"measurement": "% Cell Survival", "setting": "[1]; Senescent, log (dose) [M] -7.66", "result": 109.286, "unit": "%"}, {"measurement": "% Cell Survival", "setting": "[1]; Senescent, log (dose) [M] -8", "result": 117.714, "unit": "%"}, {"measurement": "Mean % Cell Survival", "setting": "[2]; log (dose) [M] -5", "result": 90.7857, "unit": "%"}, {"measurement": "Mean % Cell Survival", "setting": "[2]; log (dose) [M] -5.33", "result": 83.9286, "unit": "%"}, {"measurement": "Mean % Cell Survival", "setting": "[2]; log (dose) [M] -5.66", "result": 68.2857, "unit": "%"}, {"measurement": "Mean % Cell Survival", "setting": "[2]; log (dose) [M] -6", "result": 92.9286, "unit": "%"}, {"measurement": "Mean % Cell Survival", "setting": "[2]; log (dose) [M] -6.33", "result": 86.7857, "unit": "%"}, {"measurement": "Mean % Cell Survival", "setting": "[2]; log (dose) [M] -6.66", "result": 103.929, "unit": "%"}, {"measurement": "Mean % Cell Survival", "setting": "[2]; log (dose) [M] -7", "result": 113.571, "unit": "%"}, {"measurement": "Mean % Cell Survival", "setting": "[2]; log (dose) [M] -7.33", "result": 119.214, "unit": "%"}, {"measurement": "Mean % Cell Survival", "setting": "[2]; log (dose) [M] -7.66", "result": 109.286, "unit": "%"}, {"measurement": "Mean % Cell Survival", "setting": "[2]; log (dose) [M] -8", "result": 117.714, "unit": "%"}, {"measurement": "Mean % Cell Survival", "setting": "[3]; log (dose) [M] -5", "result": 104.732, "unit": "%"}, {"measurement": "Mean % Cell Survival", "setting": "[3]; log (dose) [M] -5.33", "result": 111.851, "unit": "%"}, {"measurement": "Mean % Cell Survival", "setting": "[3]; log (dose) [M] -5.66", "result": 123.214, "unit": "%"}, {"measurement": "Mean % Cell Survival", "setting": "[3]; log (dose) [M] -6", "result": 110.134, "unit": "%"}, {"measurement": "Mean % Cell Survival", "setting": "[3]; log (dose) [M] -6.33", "result": 107.884, "unit": "%"}, {"measurement": "Mean % Cell Survival", "setting": "[3]; log (dose) [M] -6.66", "result": 104.478, "unit": "%"}, {"measurement": "Mean % Cell Survival", "setting": "[3]; log (dose) [M] -7", "result": 103.285, "unit": "%"}, {"measurement": "Mean % Cell Survival", "setting": "[3]; log (dose) [M] -7.33", "result": 102.917, "unit": "%"}, {"measurement": "Mean % Cell Survival", "setting": "[3]; log (dose) [M] -7.66", "result": 99.9891, "unit": "%"}, {"measurement": "Mean % Cell Survival", "setting": "[3]; log (dose) [M] -8", "result": 98.951, "unit": "%"}]}
